Calls of active or inactive are those of the source. The rule behind the calls is not given here.
The compounds below were run on HCT116 viability, CellTiter-Glo ATP luminescence (assay: cytotoxicity toward HCT116 cells – cell-based, CellTiter-Glo luminescence, IC50, dose response (AID 1117332)).
Work on `CC(=O)[O][Hg][c]1ccccc1` yielded an IC50 of 2.8 µM. With `O=C(O)C1(C(=O)O)CCC1.[NH2-].[NH2-].[Pt+2]` the IC50 was > 20 µM (inactive). Work on `OCCN1CCN(CC/C=C2/c3ccccc3Sc3ccc(C(F)(F)F)cc32)CC1` yielded an IC50 of 4.58 µM. In the case of `Cc1ccc([N+](=O)[O-])[c]2c1[O][Hg]2`, the IC50 is reported as 2.83 µM. In the case of `O=C1[O][Bi][O]c2ccccc21`, the IC50 is reported as > 20 µM (inactive). Compound `CCCCCCCCCCCCCC[N+](C)(C)C` has an IC50 of 2.29 µM.

From PubChem BioAssay AID1117332
